The text below walks through data of patent US5733931A, “Cyclohexanediurea derivative and process for its production” (Nissin Food Products Co., Ltd., priority 1993, dated 1998).

The structures appear in SMILES notation. pIC50: −log10 of the molar value.

Experiment [1] has as its system serum cholesterol. Briefly: Serum cholesterol lowering effect in rat having high cholesterol [3-1]. Type of experiment: in vivo, SD-type (Sprague-Dawley) male rat. To be noted: oral, once a day for 5 days, dissolved in saline, Table 12. The method, then: 3) Cholesterol Lowering Effect
[3-1] Using a rat having high cholesterol, compounds of the invention were tested for their serum cholesterol lowering effects by the following method. A 6-week-old SD-type (Sprague-Dawley) male rat was fed with food containing 1% of cholesterol, 0.5% of cholic acid and 5% of olive oil for 2 days and then orally administered the food and a compound of the invention as dissolved in saline once a day for 5 days starting on day 3. Four hours after the final administration, a blood sample was taken. The total cholesterol in the serum of the test group was measured and compared with that of the control group.

For experiment [2], the target named is ACAT (Acyl-CoA: cholesterol acyltransferase) enzyme of rabbit liver microsome. Kind of experiment: Inhibitory effect on ACAT enzyme (No.1), rabbit liver microsome. It counts as biochemical. To be noted: Table 9. Here is the method:
1) Inhibitory effect on ACAT (Acyl-CoA: cholesterol acyltransferase) enzyme (No.1)
Compounds of the invention were tested for their inhibitory effects on ACAT enzyme of rabbit liver microsome by the method of J. G. Heider (J. of Lipid Res., vol. 24, 1127-1134, 1983). More specifically, the test was done by measuring the amount of labelled cholesterol oleate ester produced from oleic acid CoA (coenzyme A) labelled by radiation.
(In general: Liver microsomes are a subcellular fraction often used to study metabolism.)

The test system of experiment [3] is serum cholesterol. Briefly: Serum cholesterol lowering effect in rat having high cholesterol [3-2]. Type of experiment: in vivo, SD-type (Sprague-Dawley) male rat. Conditions: oral, once a day for the last 5 days, Tween 80 and saline suspension, Table 13. The method, then:
[3-2] Using a rat having high cholesterol, compounds of the invention were tested for their serum cholesterol lowering effects by the following method. A 6-week-old SD-type (Sprague-Dawley) male rat was fed with food containing 1% of cholesterol, 0.5% of cholic acid and 5% of olive oil for 7 days. For the last 5 days, a test sample suspended in some drops of Tween 80 and saline was orally administered once a day. Four hours after the final administration, a blood sample was taken from celiac aorta of the rat under etherization. The total cholesterol in the serum of the test group was measured by the oxygen method and compared with that of the control group.

By pIC50 is commonly meant −log10 of the IC50, conventionally taken in molar units. A lower pIC50 goes with a large IC50. For the compound `CN(C)c1ccc(NC(=O)N(C[C@H]2CCC[C@H](CN(C(=O)Nc3ccc(N(C)C)cc3)C3CCCCCC3)C2)C2CCCCCC2)cc1` (relative stereo) [Example 61, Trans-1,3-bis[[1-cycloheptyl-3-(4-dimethylaminophenyl)ureido]methyl]cyclohexane], the “Cholesterol lowering effect, % (serum total cholesterol vs control group)” value (“Cholesterol lowering effect, %” for short) in experiment [1] (3 mg/kg) turned out to be 48%; in experiment [1] (10 mg/kg), 82%. Moreover, in experiment [2], the pIC50 was 7.44.
In the case of `CN(C)c1ccc(NC(=O)N(CC(C)(C)C)C[C@H]2CC[C@H](CN(CC(C)(C)C)C(=O)Nc3ccc(N(C)C)cc3)CC2)cc1` [Example 7, Trans-1,4-bis[[3-(4-dimethylaminophenyl)-1-neopentylureido]methyl]cyclohexane], the “Cholesterol lowering effect, %” value came to 105% in experiment [1] (3 mg/kg) and 103% in experiment [1] (10 mg/kg). In experiment [2], this compound showed a pIC50 of 7.00.
As to `CN(C)c1ccc(NC(=O)N(C[C@H]2CC[C@H](CN(C(=O)Nc3ccc(N(C)C)cc3)C3CCCC3)CC2)C2CCCC2)cc1` [Example 11, Trans-1,4-bis[[1-cyclopentyl-3-(4-dimethylaminophenyl)ureido]methyl]cyclohexane], the figures for the “Cholesterol lowering effect, %” value in experiment [1] (3 mg/kg) and in experiment [1] (10 mg/kg) were 108% and 101%, respectively. In experiment [2], this compound showed a pIC50 of 7.33.
`O=C(Nc1ccc(N2CCOCC2)cc1)N(C[C@H]1CC[C@H](CN(C(=O)Nc2ccc(N3CCOCC3)cc2)C2CCCCC2)CC1)C1CCCCC1` [Example 14-4, Trans-1,4-bis[[1-cyclohexyl-3-(4-morpholinophenyl)ureido]methyl]cyclohexane]: the “Cholesterol lowering effect, %” value in experiment [3] (1 mg/kg) came to 79.9%; in experiment [3] (3 mg/kg), 98.8%.
Regarding `CN(C)c1ccc(NC(=O)N(C[C@H]2CC[C@H](CN(C(=O)Nc3ccc(N(C)C)cc3)C3CCCCCC3)CC2)C2CCCCCC2)cc1` [Example 15, Trans-1,4-bis[[1-cycloheptyl-3-(4-dimethylaminophenyl)ureido]methyl]cyclohexane], the figures for the “Cholesterol lowering effect, %” value in experiment [1] (3 mg/kg) and in experiment [1] (10 mg/kg) were 93% and 99%, respectively. Further, in experiment [2], the pIC50 was 7.42.
The matching figures for `CN(C)c1ccc(NC(=O)N(C[C@H]2CC[C@@H](CN(C(=O)Nc3ccc(N(C)C)cc3)C3CCCCC3)CC2)C2CCCCC2)cc1` [Example 42, Cis-1,4-bis[[1-cyclohexyl-3-(4-dimethylaminophenyl)ureido]methyl]cyclohexane]: 110%, 102% and 7.22.
In the same order, the values of `CN(C)c1ccc(NC(=O)N(C[C@H]2CC[C@@H](CN(C(=O)Nc3ccc(N(C)C)cc3)C3CCCCCC3)CC2)C2CCCCCC2)cc1` [Example 43, Cis-1,4-bis[[1-cycloheptyl-3-(4-dimethylaminophenyl)ureido]methyl]cyclohexane] are 88%, 107% and 7.30.
The matching figures for `CN(C)c1ccc(NC(=O)N(C[C@@H]2CCC[C@H](CN(C(=O)Nc3ccc(N(C)C)cc3)C3CCCCCC3)C2)C2CCCCCC2)cc1` [Example 83, Cis-1,3-bis[[1-cycloheptyl-3-(4-dimethylaminophenyl)ureido]methyl]cyclohexane]: 43%, 91% and 7.34.
